The source of these data is paper PMC9238736 (Journal of the American Heart Association: Cardiovascular …, 2022).

One test addresses T1, hKir2.1 (Homo sapiens, UniProt P63252).
T1 sequence (P63252 1-427): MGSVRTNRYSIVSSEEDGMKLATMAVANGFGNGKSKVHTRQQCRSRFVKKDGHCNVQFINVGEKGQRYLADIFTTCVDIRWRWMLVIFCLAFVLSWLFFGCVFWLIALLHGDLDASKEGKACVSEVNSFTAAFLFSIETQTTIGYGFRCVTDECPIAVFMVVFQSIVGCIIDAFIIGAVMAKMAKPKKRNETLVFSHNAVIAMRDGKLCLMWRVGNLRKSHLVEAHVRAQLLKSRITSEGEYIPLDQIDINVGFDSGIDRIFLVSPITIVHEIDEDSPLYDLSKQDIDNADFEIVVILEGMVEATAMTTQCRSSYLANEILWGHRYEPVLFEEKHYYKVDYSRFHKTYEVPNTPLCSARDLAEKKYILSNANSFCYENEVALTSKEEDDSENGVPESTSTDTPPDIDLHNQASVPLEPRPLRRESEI
Kind of test: whole-cell patch clamp, hyperpolarizing ramp, […] °C.

The target of test [1] is human ether‐à‐go‐go–related gene (hERG) channel (Homo sapiens, UniProt Q12809).
A further test addresses T2, hKir2.2 (Homo sapiens, UniProt Q14500).
T2 sequence (Q14500 1-433): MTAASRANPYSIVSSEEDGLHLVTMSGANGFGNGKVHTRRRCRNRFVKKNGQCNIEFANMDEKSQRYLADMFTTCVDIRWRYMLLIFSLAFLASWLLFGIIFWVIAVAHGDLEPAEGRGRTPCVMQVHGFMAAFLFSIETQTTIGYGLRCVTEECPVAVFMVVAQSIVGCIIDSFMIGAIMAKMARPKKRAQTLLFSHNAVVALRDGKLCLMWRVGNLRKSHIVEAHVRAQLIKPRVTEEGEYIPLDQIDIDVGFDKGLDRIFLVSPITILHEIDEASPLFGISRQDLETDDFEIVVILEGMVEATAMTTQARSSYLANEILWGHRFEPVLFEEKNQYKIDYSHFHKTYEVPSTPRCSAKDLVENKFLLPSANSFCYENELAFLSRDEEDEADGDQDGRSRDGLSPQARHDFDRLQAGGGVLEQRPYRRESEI
In words: whole-cell patch clamp, hyperpolarizing ramp. The class given is cell-based.

Sequence of human ether‐à‐go‐go–related gene (hERG) channel (Q12809 whole entry): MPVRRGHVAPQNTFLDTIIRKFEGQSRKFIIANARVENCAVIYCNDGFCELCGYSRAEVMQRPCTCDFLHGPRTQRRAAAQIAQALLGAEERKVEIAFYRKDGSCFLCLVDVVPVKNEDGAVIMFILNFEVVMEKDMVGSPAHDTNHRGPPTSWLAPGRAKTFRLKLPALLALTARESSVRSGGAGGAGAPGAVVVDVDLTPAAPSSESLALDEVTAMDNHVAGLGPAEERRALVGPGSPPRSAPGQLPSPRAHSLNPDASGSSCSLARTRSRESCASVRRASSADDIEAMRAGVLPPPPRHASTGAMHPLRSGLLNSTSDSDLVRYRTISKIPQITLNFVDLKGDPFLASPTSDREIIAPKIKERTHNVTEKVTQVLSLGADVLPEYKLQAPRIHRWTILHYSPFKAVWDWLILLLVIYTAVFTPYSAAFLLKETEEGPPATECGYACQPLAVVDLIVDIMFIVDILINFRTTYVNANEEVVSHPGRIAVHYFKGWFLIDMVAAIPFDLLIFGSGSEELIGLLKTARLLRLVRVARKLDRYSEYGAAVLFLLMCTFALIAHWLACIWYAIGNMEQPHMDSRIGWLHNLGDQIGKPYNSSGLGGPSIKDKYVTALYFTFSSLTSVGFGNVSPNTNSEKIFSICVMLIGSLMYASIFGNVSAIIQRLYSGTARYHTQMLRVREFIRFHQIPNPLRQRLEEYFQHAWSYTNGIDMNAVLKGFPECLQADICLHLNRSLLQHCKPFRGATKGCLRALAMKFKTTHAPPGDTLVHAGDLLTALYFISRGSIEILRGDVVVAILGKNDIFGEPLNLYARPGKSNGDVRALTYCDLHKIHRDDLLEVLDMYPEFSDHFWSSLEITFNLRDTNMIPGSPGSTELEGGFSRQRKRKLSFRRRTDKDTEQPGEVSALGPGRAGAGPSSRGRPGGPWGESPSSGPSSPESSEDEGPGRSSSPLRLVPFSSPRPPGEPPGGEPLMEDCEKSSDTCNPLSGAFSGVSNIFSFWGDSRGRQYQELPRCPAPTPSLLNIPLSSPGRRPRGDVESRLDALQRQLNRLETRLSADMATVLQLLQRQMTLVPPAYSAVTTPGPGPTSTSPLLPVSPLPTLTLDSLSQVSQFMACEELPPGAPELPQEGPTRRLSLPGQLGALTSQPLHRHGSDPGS

Consider `CCC(=O)C(CC(C)N(C)C)(c1ccccc1)c1ccccc1` (racemic) [methadone], for which the IC50 (at hKir2.1; in test [1]) was 2.9 µM throughout.
Take `CN(C)C(=O)C(CCN1CCC(O)(c2ccc(Cl)cc2)CC1)(c1ccccc1)c1ccccc1` [loperamide]: the IC50 against hKir2.2 turned out to be 1.2 µM.
